Measurements: PMC11123921, “Synthesis and Evaluation of 5-(Heteroarylmethylene)hydantoins as Glycogen Synthase Kinase-3β Inhibitors” (Pharmaceuticals, 2024)
Where a name gives a salt, the structure may show the parent alone.

Target: T1, Staphylococcus aureus pyruvate carboxylase (SaPC) (Staphylococcus aureus, UniProt A0A0H3JRU9)
T1 sequence (A0A0H3JRU9 1-1150): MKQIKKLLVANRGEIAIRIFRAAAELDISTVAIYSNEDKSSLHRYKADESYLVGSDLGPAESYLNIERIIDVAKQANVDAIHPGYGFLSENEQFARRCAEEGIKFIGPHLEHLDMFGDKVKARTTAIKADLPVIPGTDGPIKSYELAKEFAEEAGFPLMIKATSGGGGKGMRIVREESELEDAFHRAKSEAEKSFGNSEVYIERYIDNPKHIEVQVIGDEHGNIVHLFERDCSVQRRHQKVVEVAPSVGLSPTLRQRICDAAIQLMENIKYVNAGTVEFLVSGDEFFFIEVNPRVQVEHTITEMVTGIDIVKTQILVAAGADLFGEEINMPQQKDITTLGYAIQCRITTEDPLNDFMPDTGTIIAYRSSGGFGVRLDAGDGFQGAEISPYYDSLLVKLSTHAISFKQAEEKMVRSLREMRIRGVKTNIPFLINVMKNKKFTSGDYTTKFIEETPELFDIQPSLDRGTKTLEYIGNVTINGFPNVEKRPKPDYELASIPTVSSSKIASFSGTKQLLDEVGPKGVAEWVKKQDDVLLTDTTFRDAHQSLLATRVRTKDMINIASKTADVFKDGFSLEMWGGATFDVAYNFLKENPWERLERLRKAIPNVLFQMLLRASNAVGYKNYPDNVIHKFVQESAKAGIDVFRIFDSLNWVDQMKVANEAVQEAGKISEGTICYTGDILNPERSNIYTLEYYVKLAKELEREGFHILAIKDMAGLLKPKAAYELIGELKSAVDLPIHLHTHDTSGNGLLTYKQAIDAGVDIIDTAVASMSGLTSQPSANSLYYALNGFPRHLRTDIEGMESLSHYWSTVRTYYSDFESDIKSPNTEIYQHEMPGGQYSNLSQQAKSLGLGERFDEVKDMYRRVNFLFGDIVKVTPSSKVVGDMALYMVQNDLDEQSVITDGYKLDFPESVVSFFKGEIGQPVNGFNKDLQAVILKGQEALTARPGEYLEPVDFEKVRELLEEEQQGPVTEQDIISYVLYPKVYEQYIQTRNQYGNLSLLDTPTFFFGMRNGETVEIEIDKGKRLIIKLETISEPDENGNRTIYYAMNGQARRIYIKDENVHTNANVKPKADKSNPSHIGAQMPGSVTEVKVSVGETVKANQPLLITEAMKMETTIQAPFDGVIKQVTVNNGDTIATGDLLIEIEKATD
Experiment: biochemical
Conditions: isolated SaPC

IC50 | Compound
> 1000 µM | O=C1NC(=O)/C(=C/c2cc(Cl)ccn2)N1 [Compound 25, (Z)-5-[(4′-Chloro-2-pyridinyl)methylene]-2,4-imidazolidinedione-HCl]
> 1000 µM | COc1cccc(/C=C2\NC(=O)NC2=O)n1 [Compound 15, (Z)-5-[(6′-Methoxy-2-pyridinyl)methylene]-2,4-imidazolidinedione]
> 1000 µM | O=C1NC(=O)/C(=C/c2ccc3ccccc3n2)N1 [Compound 18, (Z)-5-[(2-Quinolinyl)methylene]-2,4-imidazolidinedione]
> 1000 µM | O=C1NC(=O)/C(=C/c2csc3ccccc23)N1 [Compound 29, (Z)-5-[(3-Benzo[b]thiophenyl)methylene]-2,4-imidazolidinedione]

Tested on: not given
Experiment: not given
Conditions: not given

melting point | Compound
249 to 251 °C | COc1cccc(/C=C2\NC(=O)NC2=O)n1 [Compound 15, (Z)-5-[(6′-Methoxy-2-pyridinyl)methylene]-2,4-imidazolidinedione]
> 255 °C | O=C1NC(=O)/C(=C/c2ccc3ccccc3n2)N1 [Compound 18, (Z)-5-[(2-Quinolinyl)methylene]-2,4-imidazolidinedione]
> 250 °C | O=C1NC(=O)/C(=C/c2csc3ccccc23)N1 [Compound 29, (Z)-5-[(3-Benzo[b]thiophenyl)methylene]-2,4-imidazolidinedione]

Target: human matrix metalloproteinase-12 (Homo sapiens, UniProt P39900)
Experiment: Matrix metalloproteinase-12 fluorogenic substrate assay
Type: biochemical
Conditions: 25 μM compound; read-out: MMP-12 % Activity @ 25 μM
Description: (§1) 5-(Heteroarylmethylene)hydantoins were evaluated as inhibitors for MMP-12 at fixed concentrations of 200 and 25 μM (Table 1). At 200 μM of 20–24, the activity of MMP-12 was ≤50% the activity of positive control; for compounds 21, 24, and 25 at 25 μM, the activity of MMP12 was 69–74% while the activity for the others was >80%. […] A select subset of the 5-(heteroarylmethylene)hydantoins were evaluated as inhibitors of human carbonic anhydrase II (hCAII) at 200 μM (Table 1). […] Finally, this same subset of 5-(heteroarylmethylene)hydantoins were evaluated as inhibitors of isolated S. aureus pyruvate carboxylase (SaPC) in a fixed-time assay (Table 1). No inhibitory activity was observed up to 1000 μM.
Assays for human matrix metalloproteinase-12 activity were performed in a 96-well plate format for a total reaction volume of 100 μL, in an assay modified from Day and Cohen. All assay reagents were prepared and maintained at 22 °C until warmed to 37 °C. The omniMMP fluorogenic substrate and MMP-12 enzyme were prepared in assay buffer (50 mM HEPES, 10 mM CaCl2, 0.05% Brij-35, pH of 7.52), and small molecule effectors were prepared as a solution in 50% DMSO, 50% assay buffer. The final concentration of enzyme in the 100 μL enzymatic reaction was 0.0083 U/μL. A known inhibitor, N-[(4’-bromo [1,1’-biphenyl]-4-yl)sulfonyl]-L-valine (PD166793), was included where noted at a final concentration of 100 μM. OmniMMP fluorogenic substrate was added to the 100 μL enzymatic reaction at a final concentration of 4 μM. For all experiments, 30 μL of enzyme stock solution was added to each well in a 96-well, flat-bottom, black polystyrene microplate (SantaCruz Biotechnology, Dallas, TX, USA), followed by the addition of 10 μL of the effectors (50% assay buffer, 50% DMSO for the uninhibited reaction, PD166793 for the inhibition). The 96-well plate was then incubated in a plate reader at 37 °C for 30 min; concurrently, the substrate solution was also warmed to 37 °C for 30 min. The enzymatic reaction was initiated by adding 60 μL of the omniMMP fluorogenic substrate solution. The change in fluorescence was then monitored for 30 min with excitation and emission wavelengths at 320 and 400 nm, respectively, every 46 s for a total of 40 measurements.

Chain of human matrix metalloproteinase-12 (P39900 106-470): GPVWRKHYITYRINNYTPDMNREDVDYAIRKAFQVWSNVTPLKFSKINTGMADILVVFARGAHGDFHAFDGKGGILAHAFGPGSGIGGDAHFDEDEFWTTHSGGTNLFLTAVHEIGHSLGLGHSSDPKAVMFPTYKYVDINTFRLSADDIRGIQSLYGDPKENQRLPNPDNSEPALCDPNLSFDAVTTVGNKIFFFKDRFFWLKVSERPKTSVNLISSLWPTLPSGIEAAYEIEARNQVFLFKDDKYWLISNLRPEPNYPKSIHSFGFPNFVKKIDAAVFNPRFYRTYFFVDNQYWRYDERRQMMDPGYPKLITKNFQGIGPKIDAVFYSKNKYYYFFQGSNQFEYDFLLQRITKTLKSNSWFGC

activity at 25 µM | Compound
73.9% | O=C1NC(=O)/C(=C/c2cc(Cl)ccn2)N1 [Compound 25, (Z)-5-[(4′-Chloro-2-pyridinyl)methylene]-2,4-imidazolidinedione-HCl]
87.5% | COc1cccc(/C=C2\NC(=O)NC2=O)n1 [Compound 15, (Z)-5-[(6′-Methoxy-2-pyridinyl)methylene]-2,4-imidazolidinedione]
94.1% | O=C1NC(=O)/C(=C/c2ccc3ccccc3n2)N1 [Compound 18, (Z)-5-[(2-Quinolinyl)methylene]-2,4-imidazolidinedione]
98.1% | O=C1NC(=O)/C(=C/c2csc3ccccc23)N1 [Compound 29, (Z)-5-[(3-Benzo[b]thiophenyl)methylene]-2,4-imidazolidinedione]

Same assay, conditions: 200 μM compound; read-out: MMP-12 % Activity @ 200 μM

activity at 200 µM | Compound
50% | O=C1NC(=O)/C(=C/c2cc(Cl)ccn2)N1 [Compound 25, (Z)-5-[(4′-Chloro-2-pyridinyl)methylene]-2,4-imidazolidinedione-HCl]
74% | COc1cccc(/C=C2\NC(=O)NC2=O)n1 [Compound 15, (Z)-5-[(6′-Methoxy-2-pyridinyl)methylene]-2,4-imidazolidinedione]
57.6% | O=C1NC(=O)/C(=C/c2ccc3ccccc3n2)N1 [Compound 18, (Z)-5-[(2-Quinolinyl)methylene]-2,4-imidazolidinedione]
88% | O=C1NC(=O)/C(=C/c2csc3ccccc23)N1 [Compound 29, (Z)-5-[(3-Benzo[b]thiophenyl)methylene]-2,4-imidazolidinedione]

Target: human carbonic anhydrase II (hCAII) (Homo sapiens, UniProt P00918)
Experiment: Human carbonic anhydrase II p-nitrophenyl acetate assay
Type: biochemical
Conditions: 200 μM compound
Description: as §1
Assays for human carbonic anhydrase II activity were performed in a 96-well plate format for a total reaction volume of 100 μL, in an assay modified from Day and Cohen. All assay reagents and solutions were prepared separately and maintained at 22 °C until warmed to 30 °C. All substrates, effectors, and enzyme were freshly dissolved and diluted in assay buffer containing 50 mM Tris (pH 8.0). The final concentration of the human carbonic anhydrase II enzyme was 200 nM. Where noted, acetazolamide was included at a final concentration of 10 μM. The substrate, p-nitrophenyl acetate, was added at a final concentration of 504 μM. For all experiments, 20 μL of enzyme stock solution was added to each well in a 96-well, flat-bottom, polystyrene microplate (Santa Cruz Biotechnology, Dallas, TX, USA), followed by the addition of 10 μL of the effectors (assay buffer for the uninhibited reaction, acetazolamide for the inhibition). The 96-well plate was then incubated in a plate reader at 30 °C for 10 min; concurrently, the substrate solution was also warmed to 30 °C for 10 min. The enzymatic reaction was initiated by adding 70 μL of the substrate solution (p-nitrophenyl acetate). The absorbance values were then measured at 405 nm every 30 s over a period of 20 min for a total of 40 measurements.

activity at 200 µM | Compound
57 ± 16.4% | O=C1NC(=O)/C(=C/c2cc(Cl)ccn2)N1 [Compound 25, (Z)-5-[(4′-Chloro-2-pyridinyl)methylene]-2,4-imidazolidinedione-HCl]
82.1 ± 11% | COc1cccc(/C=C2\NC(=O)NC2=O)n1 [Compound 15, (Z)-5-[(6′-Methoxy-2-pyridinyl)methylene]-2,4-imidazolidinedione]
63% | O=C1NC(=O)/C(=C/c2csc3ccccc23)N1 [Compound 29, (Z)-5-[(3-Benzo[b]thiophenyl)methylene]-2,4-imidazolidinedione]

Same assay, conditions: 200 μM compound; 200 µM

hCAII % Activity @ 200 μM | Compound
62.7 ± 9.8% | O=C1NC(=O)/C(=C/c2csc3ccccc23)N1 [Compound 29, (Z)-5-[(3-Benzo[b]thiophenyl)methylene]-2,4-imidazolidinedione]

Target: GSK-3β (Homo sapiens, UniProt P49841)
Experiment: GSK-3β kinase HotSpot assay (Reaction Biology)
Type: biochemical
Conditions: 25 μM compound, 10 μM ATP, duplicate, average; remaining kinase activity vs vehicle

Chain of GSK-3β (P49841 whole entry): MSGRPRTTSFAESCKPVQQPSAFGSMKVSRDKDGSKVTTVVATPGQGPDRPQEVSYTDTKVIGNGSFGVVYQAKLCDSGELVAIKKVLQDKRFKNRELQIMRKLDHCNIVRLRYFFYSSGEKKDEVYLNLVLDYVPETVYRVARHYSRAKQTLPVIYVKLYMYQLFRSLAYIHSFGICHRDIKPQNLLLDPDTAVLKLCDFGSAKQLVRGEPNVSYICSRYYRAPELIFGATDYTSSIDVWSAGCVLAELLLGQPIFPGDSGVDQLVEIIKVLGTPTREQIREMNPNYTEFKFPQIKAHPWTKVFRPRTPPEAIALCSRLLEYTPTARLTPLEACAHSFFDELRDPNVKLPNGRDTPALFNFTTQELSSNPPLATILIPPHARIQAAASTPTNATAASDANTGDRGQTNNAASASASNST

activity at 25 µM | Compound
15.4% | O=C1NC(=O)/C(=C/c2cc(Cl)ccn2)N1 [Compound 25, (Z)-5-[(4′-Chloro-2-pyridinyl)methylene]-2,4-imidazolidinedione-HCl]
17.3% | COc1cccc(/C=C2\NC(=O)NC2=O)n1 [Compound 15, (Z)-5-[(6′-Methoxy-2-pyridinyl)methylene]-2,4-imidazolidinedione]
32.9% | O=C1NC(=O)/C(=C/c2ccc3ccccc3n2)N1 [Compound 18, (Z)-5-[(2-Quinolinyl)methylene]-2,4-imidazolidinedione]
27.9% | O=C1NC(=O)/C(=C/c2csc3ccccc23)N1 [Compound 29, (Z)-5-[(3-Benzo[b]thiophenyl)methylene]-2,4-imidazolidinedione]

Same assay, conditions: 10-point, triplicate, 10 μM ATP, average ± SD

IC50 | Compound
2.14 ± 0.18 µM | O=C1NC(=O)/C(=C/c2cc(Cl)ccn2)N1 [Compound 25, (Z)-5-[(4′-Chloro-2-pyridinyl)methylene]-2,4-imidazolidinedione-HCl]
4.06 ± 0.3 µM | COc1cccc(/C=C2\NC(=O)NC2=O)n1 [Compound 15, (Z)-5-[(6′-Methoxy-2-pyridinyl)methylene]-2,4-imidazolidinedione]
